Reference: doi:[…]/2021.10.07.463234v2 (biorxiv, 2021)
pIC50: −log10 of the molar value. Values joined by “and” are separate entries in the source; they are usually repeats but may differ in a detail not shown here. Equal values may be shown once. Where a name gives a salt, the structure may show the parent alone. Read-outs that look alike come from different tables or passages of the source.

How the values were obtained:
SARS-CoV-2 Mac1 [1] = biological target: T1, SARS-CoV-2 Mac1 (Severe acute respiratory syndrome coronavirus 2, UniProt P0DTD1); test: biochemical; settings: read-out: %inhibition
SARS-CoV-2 Mac1 [2] = biological target: T1, SARS-CoV-2 Mac1; test: biochemical; settings: for inhibition at 100 µM: read-out: %inhibition; for %inhibition: 100 µM, inhibitor
SARS-CoV-2 Mac1 [3] = biological target: T1, SARS-CoV-2 Mac1; test: biochemical
human MacroD2 = human MacroD2 (Homo sapiens, UniProt A1Z1Q3); test: ADPr-Glo luminescence ADP-ribosylhydrolase assay; format: biochemical
Chain of human MacroD2 (A1Z1Q3 whole entry): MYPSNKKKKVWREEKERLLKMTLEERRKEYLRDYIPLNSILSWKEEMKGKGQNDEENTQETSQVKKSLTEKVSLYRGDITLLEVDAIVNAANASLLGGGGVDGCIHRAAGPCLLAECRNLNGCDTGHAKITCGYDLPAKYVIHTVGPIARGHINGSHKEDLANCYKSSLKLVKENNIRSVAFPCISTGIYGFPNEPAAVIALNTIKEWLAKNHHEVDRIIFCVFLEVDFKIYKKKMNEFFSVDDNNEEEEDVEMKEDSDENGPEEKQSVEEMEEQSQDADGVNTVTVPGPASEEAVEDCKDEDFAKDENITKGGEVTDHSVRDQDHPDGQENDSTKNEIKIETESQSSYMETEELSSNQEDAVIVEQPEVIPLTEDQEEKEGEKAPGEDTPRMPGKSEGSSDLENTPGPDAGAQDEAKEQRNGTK

Which inhibition at 100 µM (SARS-CoV-2 Mac1 [1]) does the source give for `N#CC(C#N)=Cc1ccc(O)c(O)c1` [Tyrphostin 23] here?
Its inhibition at 100 µM is 52%.

With `Oc1ncnc2[nH]ncc12` [Allopurinol] as the compound, how does the inhibition at 100 µM (SARS-CoV-2 Mac1 [1]) read?
Its inhibition at 100 µM is 37%.

What about the inhibition at 100 µM (SARS-CoV-2 Mac1 [2]) of the same compound?
The inhibition at 100 µM was 0%.

`NNCc1cccc(O)c1` [3-Hydroxybenzylhydrazine dihydrochloride] was tested. Which inhibition at 100 µM (SARS-CoV-2 Mac1 [1]) did it give?
The inhibition at 100 µM was 32%.

Which inhibition at 100 µM (SARS-CoV-2 Mac1 [1]) does the source give for `Cc1ccc(C(=O)Nc2ccc(S(=O)(=O)O)c3cc(S(=O)(=O)O)cc(S(=O)(=O)O)c23)cc1NC(=O)c1cccc(NC(=O)Nc2cccc(C(=O)Nc3cc(C(=O)Nc4ccc(S(=O)(=O)O)c5cc(S(=O)(=O)O)cc(S(=O)(=O)O)c45)ccc3C)c2)c1` [Suramin hexasodium] here?
Its inhibition at 100 µM is 86%.

With `Nc1nc(SCc2ccc([N+](=O)[O-])cc2)c2ncn([C@@H]3O[C@H](CO)[C@@H](O)[C@H]3O)c2n1` [S-(4-Nitrobenzyl)-6-thioguanosine] as the compound, how does the inhibition at 100 µM (SARS-CoV-2 Mac1 [1]) read?
Its inhibition at 100 µM is 35%.

How did the inhibition at 100 µM (SARS-CoV-2 Mac1 [1]) turn out when `Cc1cccc(C#Cc2ccccc2)n1` [6-Methyl-2-(phenylethynyl)pyridine hydrochloride] was run?
The inhibition at 100 µM was 45%.

`Nc1nc(Cl)nc2c1ncn2[C@@H]1O[C@H](COP(=O)(O)OP(=O)(O)OP(=O)(O)O)[C@H](O)C1O` (some centres unmarked) [2-Chloroadenosine triphosphate tetrasodium] was tested. Which inhibition at 100 µM (SARS-CoV-2 Mac1 [1]) did it give?
Its inhibition at 100 µM is 57%.

With `Cc1ccc(O)c(N=Nc2ccccc2)n1` [SIB 1757] as the compound, how does the inhibition at 100 µM (SARS-CoV-2 Mac1 [1]) read?
Its inhibition at 100 µM is 79%.

How did the inhibition at 100 µM (SARS-CoV-2 Mac1 [1]) turn out when `O=C1c2c(O)ccc(O)c2C(=O)c2c(NCCNCCO)ccc(NCCNCCO)c21` [Mitoxantrone] was run?
The inhibition at 100 µM was 53%.

For `O=C(Nc1cc(C(=O)Nc2ccc(S(=O)(=O)O)cc2S(=O)(=O)O)cc(C(=O)Nc2ccc(S(=O)(=O)O)cc2S(=O)(=O)O)c1)Nc1cc(C(=O)Nc2ccc(S(=O)(=O)O)cc2S(=O)(=O)O)cc(C(=O)Nc2ccc(S(=O)(=O)O)cc2S(=O)(=O)O)c1` [NF449 octasodium salt], which inhibition at 100 µM (SARS-CoV-2 Mac1 [1]) is on record?
The inhibition at 100 µM was 54%.

`N#C/C(=C\c1ccc(O)c(O)c1)C(=O)NCc1ccccc1` [Tyrphostin AG 490] was tested. Which inhibition at 100 µM (SARS-CoV-2 Mac1 [1]) did it give?
The inhibition at 100 µM was 79%.

Which inhibition at 100 µM (SARS-CoV-2 Mac1 [1]) does the source give for `N#C/C(=C\c1ccc(O)c(O)c1)C(=O)NCCCNC(=O)/C(C#N)=C/c1ccc(O)c(O)c1` [Tyrphostin AG 537] here?
Its inhibition at 100 µM is 54%.

With `Nc1c(S(=O)(=O)O)cc(Nc2ccc(Nc3nc(Cl)nc(Nc4cccc(S(=O)(=O)O)c4)n3)c(S(=O)(=O)O)c2)c2c1C(=O)c1ccccc1C2=O` [Reactive Blue 2] as the compound, how does the inhibition at 100 µM (SARS-CoV-2 Mac1 [1]) read?
The inhibition at 100 µM was 100%.

What does the source list for `Cc1nc(Nc2ncc(C(=O)Nc3c(C)cccc3Cl)s2)cc(N2CCN(CCO)CC2)n1` [dasatinib]?
pIC50 (SARS-CoV-2 Mac1 [3]): 4.24 to 4.43; %inhibition (SARS-CoV-2 Mac1 [2]): 66.44% and 68.55%; inhibition at 100 µM (SARS-CoV-2 Mac1 [2]): 78.6%; pIC50 (human MacroD2): < 2.70

`NNc1nnc(NN)c2ccccc12` [dihydralazine] was tested. Which pIC50 (SARS-CoV-2 Mac1 [3]) did it give?
The pIC50 was 3.12 to 3.31.

And the pIC50 (human MacroD2)?
Its pIC50 is 2.74 to 3.30.

`COc1cc2c(cc1OC)[C@@H](c1ccccc1)CN(C)CC2` [R(-)-SCH-12679 maleate] was tested. Which inhibition at 100 µM (SARS-CoV-2 Mac1 [1]) did it give?
The inhibition at 100 µM was 96%.

`CCOc1ccc2nc3cc(N)ccc3c(N)c2c1` [Ethacridine lactate monohydrate] was tested. Which inhibition at 100 µM (SARS-CoV-2 Mac1 [2]) did it give?
The inhibition at 100 µM was 25.8%.

Which inhibition at 100 µM (SARS-CoV-2 Mac1 [2]) does the source give for `OC[C@@H](O)[C@H](O)[C@@H](O)CO` [Xylitol] here?
Its inhibition at 100 µM is 0%.

How did the inhibition at 100 µM (SARS-CoV-2 Mac1 [2]) turn out when `CC(C)OC(=O)CCC/C=C\C[C@@H]1[C@@H](/C=C/C(F)(F)COc2ccccc2)[C@H](O)C[C@@H]1O` [Tafluprost] was run?
Its inhibition at 100 µM is 4.8%.

Which inhibition at 100 µM (SARS-CoV-2 Mac1 [2]) does the source give for `CC(C)(C#N)c1cc(Cn2cncn2)cc(C(C)(C)C#N)c1` [Anastrozole] here?
Its inhibition at 100 µM is 10.3%.

With `CC1(C)[C@H](C(=O)O)N2C(=O)C[C@H]2S1(=O)=O` [Sulbactam sodium] as the compound, how does the inhibition at 100 µM (SARS-CoV-2 Mac1 [2]) read?
The inhibition at 100 µM was 16.4%.

For `O=C(NCCO[N+](=O)[O-])c1cccnc1` [Nicorandil], which inhibition at 100 µM (SARS-CoV-2 Mac1 [2]) is on record?
Its inhibition at 100 µM is 15.7%.

`CO[C@H]1/C=C/O[C@@]2(C)Oc3c(C)c(O)c4c(O)c(c(/C=N/N5CCN(C6CCCC6)CC5)c(O)c4c3C2=O)NC(=O)/C(C)=C\C=C\[C@H](C)[C@H](O)[C@@H](C)[C@@H](O)[C@@H](C)[C@H](OC(C)=O)[C@@H]1C` [Rifapentine] was tested. Which inhibition at 100 µM (SARS-CoV-2 Mac1 [2]) did it give?
Its inhibition at 100 µM is 26.7%.

With `C[C@@H](O)[C@H]1C(=O)N2C(C(=O)O)=C(S[C@@H]3CN[C@H](C(=O)Nc4cccc(C(=O)O)c4)C3)[C@H](C)[C@H]12` [Ertapenem sodium] as the compound, how does the inhibition at 100 µM (SARS-CoV-2 Mac1 [2]) read?
The inhibition at 100 µM was 2.44%.

`CC(=O)NS(=O)(=O)c1ccc(N)cc1` [Sulfacetamide] was tested. Which “%inhibition” value (SARS-CoV-2 Mac1 [2]) did it give?
Its value is 27.01%.

How did the inhibition at 100 µM (SARS-CoV-2 Mac1 [2]) turn out when `c1ccc(CC2=NCCN2)cc1` [Tolazoline HCl] was run?
The inhibition at 100 µM was 7.01%.

Which inhibition at 100 µM (SARS-CoV-2 Mac1 [2]) does the source give for `COc1ccc2cc1Oc1ccc(cc1)C[C@H]1c3c(cc4c(c3Oc3cc5c(cc3OC)CCN(C)[C@@H]5C2)OCO4)CCN1C` [Cepharanthine] here?
The inhibition at 100 µM was 18.2%.

How did the inhibition at 100 µM (SARS-CoV-2 Mac1 [2]) turn out when `CS(=O)(=O)c1ccc([C@@H](O)[C@@H](CF)NC(=O)C(Cl)Cl)cc1` [Florfenicol] was run?
The inhibition at 100 µM was 30.4%.

Which “%inhibition” value (SARS-CoV-2 Mac1 [2]) does the source give for `COc1cc2nc(N3CCN(C(=O)C4CCCO4)CC3)nc(N)c2cc1OC` (centres unmarked) [Terazosin HCl] here?
Its value is 2.055%.

How did the inhibition at 100 µM (SARS-CoV-2 Mac1 [2]) turn out when `CNC(=C[N+](=O)[O-])NCCSCc1ccc(CN(C)C)o1` [Ranitidine Hydrochloride] was run?
The inhibition at 100 µM was 10.7%.

`CN(C)CCOC(c1ccc(Cl)cc1)c1ccccn1` (centres unmarked) [CarbinoxaMine Maleate] was tested. Which inhibition at 100 µM (SARS-CoV-2 Mac1 [2]) did it give?
Its inhibition at 100 µM is 0%.

With `CCCCCCOC(=O)NC(=N)c1ccc(NCc2nc3cc(C(=O)N(CCC(=O)OCC)c4ccccn4)ccc3n2C)cc1` [Dabigatran Etexilate] as the compound, how does the inhibition at 100 µM (SARS-CoV-2 Mac1 [2]) read?
The inhibition at 100 µM was 0%.

For `C[N+](C)(C)CCOP(=O)(O)OP(=O)([O-])OC[C@H]1O[C@@H](n2ccc(N)nc2=O)[C@H](O)[C@@H]1O` [Citicoline sodium], which inhibition at 100 µM (SARS-CoV-2 Mac1 [2]) is on record?
Its inhibition at 100 µM is 1.89%.

With `N#CC[C@H](C1CCCC1)n1cc(-c2ncnc3[nH]ccc23)cn1` [Ruxolitinib (INCB018424)] as the compound, how does the “%inhibition” value (SARS-CoV-2 Mac1 [2]) read?
The value was 0%.

`O=C(O)c1cn(-c2ccc(F)cc2)c2cc(N3CCNCC3)c(F)cc2c1=O` [Sarafloxacin HCl] was tested. Which inhibition at 100 µM (SARS-CoV-2 Mac1 [2]) did it give?
The inhibition at 100 µM was 15.7%.

`CCCC1O[C@@H]2C[C@H]3[C@@H]4CCC5=CC(=O)C=C[C@]5(C)[C@H]4[C@@H](O)C[C@]3(C)[C@]2(C(=O)CO)O1` (some centres unmarked) [Budesonide] was tested. Which inhibition at 100 µM (SARS-CoV-2 Mac1 [2]) did it give?
The inhibition at 100 µM was 12.3%.

`CNC(=O)c1cnn(-c2nc(N)c3ncn([C@@H]4O[C@H](CO)[C@@H](O)[C@H]4O)c3n2)c1` [Regadenoson] was tested. Which inhibition at 100 µM (SARS-CoV-2 Mac1 [2]) did it give?
Its inhibition at 100 µM is 0%.

How did the inhibition at 100 µM (SARS-CoV-2 Mac1 [2]) turn out when `CN[C@@H]1[C@H](O[C@H]2[C@H](O[C@H]3[C@H](O)[C@@H](O)[C@H](N=C(N)N)[C@@H](O)[C@@H]3N=C(N)N)O[C@@H](C)[C@]2(O)C=O)O[C@@H](CO)[C@H](O)[C@H]1O` [Streptomycin sulfate] was run?
The inhibition at 100 µM was 0%.

With `CN1C[C@@H]2C[C@H]1CN2c1cc2c(cc1F)c(=O)c(C(=O)O)cn2C1CC1` [Danofloxacin Mesylate] as the compound, how does the inhibition at 100 µM (SARS-CoV-2 Mac1 [2]) read?
The inhibition at 100 µM was 0%.

Which “%inhibition” value (SARS-CoV-2 Mac1 [2]) does the source give for `COc1ccc2[nH]c([S@@+]([O-])Cc3ncc(C)c(OC)c3C)nc2c1` [Esomeprazole sodium] here?
The value was 0%.

How did the inhibition at 100 µM (SARS-CoV-2 Mac1 [2]) turn out when `CO/N=C(\C(=O)N[C@@H]1C(=O)N2C(C(=O)O)=CCS[C@H]12)c1csc(N)n1` [Ceftizoxime] was run?
The inhibition at 100 µM was 12.3%.

How did the inhibition at 100 µM (SARS-CoV-2 Mac1 [2]) turn out when `CC[C@H](Nc1ncnc2[nH]cnc12)c1nc2cccc(F)c2c(=O)n1-c1ccccc1` [Idelalisib (CAL-101, GS-1101)] was run?
Its inhibition at 100 µM is 0%.
